# Source: PubChem BioAssay AID504359 (Broad Institute, 2011)
# Calls of active or inactive are those of the source.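 Rule for the calls: active = fitted curve climbs past 10% caspase activation, relative to the positive control, at or below the top valid tested dose; inactive = the rest, including activity in the opposite direction.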
# Tested on: not listed separately
# Assay: apoptosis induction in tBid-primed mouse fibroblasts – cell-based, MEF A1-2A-tBid, luminescence, dry powder, set 2, orthogonal assay for A1 inhibitor project, dose response (AID 504359)
# Details: MEF A1-2A-tBid cells, caspase 3/7 luminescence, 3 h; at 35 µM (top of the series)
row,SMILES,caspase activation
1,CCOCCCNc1c([N+](=O)[O-])c(=O)n(C)c2ccccc12,0.513% (inactive)
2,Cc1ccc(Sc2cc(=O)n(C)c3ccccc23)cc1,-7.35% (inactive)
3,CCSc1c([N+](=O)[O-])c(=O)oc2ccccc12,-3.21% (inactive)
4,CCOC(=O)N1CCN(c2c([N+](=O)[O-])c(=O)n(C)c3ccccc23)CC1,-0.293% (inactive)
5,O=c1oc2ccccc2c(N2CCCCC2)c1[N+](=O)[O-],-2.24% (inactive)
6,O=c1oc2ccccc2c(Nc2cc(Cl)cc(Cl)c2)c1[N+](=O)[O-],-1.39% (inactive)
7,C/C1=C/C(=O)O[C@@H]2C[C@@H](CC[C@H](C)/C=C\CC1)O[C@@](O)(C1CSC(=O)N1)C2 (stereo partly specified),3.32% (inactive)
8,Cc1ccc(Nc2c([N+](=O)[O-])c(=O)oc3ccccc23)cc1,1.44% (inactive)
9,Cn1c(=O)c([N+](=O)[O-])c(Oc2ccccc2)c2ccccc21,0.967% (inactive)
10,Cn1c(=O)c([N+](=O)[O-])c(Nc2ccc(Cl)cc2)c2ccccc21,-0.562% (inactive)
11,O=c1oc2ccccc2c(Cl)c1[N+](=O)[O-],-6.09% (inactive)
12,Cc1ccc(Sc2c([N+](=O)[O-])c(=O)oc3ccccc23)cc1,-3.75% (inactive)
13,O=c1oc2ccccc2c(Sc2ccccc2)c1[N+](=O)[O-],-5.14% (inactive)
14,O=C(Oc1cccc(/C=N/Nc2nc(Nc3ccccc3)nc(N3CCOCC3)n2)c1)c1ccco1,3.43% (inactive)
15,CN1C(=O)C(C)(C)N(Cc2ccccc2)c2ccccc21,0.072% (inactive)
16,Cc1ccc(Nc2c([N+](=O)[O-])c(=O)n(C)c3ccccc23)cc1,-0.806% (inactive)

# Tested on: MEF A1-2A-tBid cells, caspase 3/7 luminescence, 3 h
# Assay: as above
# Details: not given
row,SMILES,AC10
1,Cc1ccc(Sc2c([N+](=O)[O-])c(=O)n(C)c3ccccc23)cc1,7.45 µM
2,Cc1ccc(Sc2c([N+](=O)[O-])cnc3ccccc23)cc1,5.49 µM
3,Cn1c(=O)c([N+](=O)[O-])c(Cl)c2ccccc21,0.716 µM
4,O=[N+]([O-])c1cnc2ccccc2c1Sc1ccccc1,7.93 µM
5,Cn1c(=O)c([N+](=O)[O-])c(-n2cnc3ccccc32)c2ccccc21,24.8 µM
